Laboratory results as given in patent publication US10190166B2, “Methods for identifying dendritic cell subsets, for determining if a patient is developing a regulatory or an effector immune response, and for determining response to immunotherapy” (STALLERGENES, priority 2011, dated 2019).
Where “and” joins values, the source holds several entries; their conditions need not be identical. Equal entries are not always repeated.

Legend:
monocyte-derived DCs [1] = assay: Label free MS analysis of DC subtypes; format: cell-based, human
Experimental: Label-free MS of digested total protein lysates (solubilized in buffer A as described above), was conducted to compare proteomes of control, effector and regulatory DC subsets. Briefly, a common ultrafiltration device was used for detergent removal (CHAPS) to enable subsequent proteome analysis (Filter-aided sample preparation, FASP). 100 μg of proteins were mixed with urea-containing buffers in the filter unit (Amicon Ultra-0.5 ml, Ultracel-10 kDa Membrane, Millipore, Molsheim, France), reduced with 20 mM DTT, alkylated with 50 mM iodoacetamide, digested with Lys-C (37° C., 5 h, ratio 1/50, Sigma-Aldrich) and then with trypsin (37° C., overnight, ratio 1/50). After digestion, peptides were desalted using RPC18 Dynal magnetic beads (Invitrogen), acidified with FA and 1.5 to 2 μg of tryptic peptides were analyzed by nanoLC-MS or nanoLC-MS/MS.
In MS mode, full scan MS spectra were acquired from m/z 280 to 1500 (1 MS spectrum of 0.8 s) during 270 min. Ion intensities recorded in LC-MS data were analyzed using Progenesis LC-MS v3.1 software (Non Linear Dynamics) to provide reliable measurements of peptide (feature) abundance across samples. Internal calibration was performed by enabling the lock mass option in MS mode (minimum intensity>200 and mass±0.015 Da). […] Targeted nanoLC-MS/MS were accomplished by means of an inclusion mass list in the MS instrument method. […] Identification parameters were identical to those described for 2D-DIGE analysis. […] For accurate mass measurements, the lock mass option was enabled in MS and MS/MS mode.

monocyte-derived DCs [2] = assay: Western blot analysis of marker proteins in treated DCs; format: cell-based, human
Experimental: NuPAGE-Western blotting was carried out according to standard procedures (NuPAGE technical guide, Invitrogen). […] H00004599-[…], 1/500) from Abnova (Taipei, Taiwan), anti-CD71 (Cat. no. […] The rabbit polyclonal serum raised against GILZ was previously described (see […], et al. […] Peroxidase-conjugated goat anti-mouse and anti-rabbit secondary antibodies were both obtained from Jackson Immunoresearch Laboratories (Sufflok, England), and the chemiluminescence detection kit was from Pierce (SuperSignal West Pico Chemiluminescent Substrate, Fisher Scientific, Illkirch, France). Western blot signals were acquired with a CCD camera (Fusion FX7, Vilber-Lourmat, Marnes La Vallée, France) and band volume was quantified using the Bio-1D software (Vilber-Lourmat). β-actin or GAPDH were used as loading controls.

monocyte-derived DCs [3] = assay: Quantitative real-time PCR of marker genes in treated DCs
Experimental: Total RNA was extracted from treated DCs or PBMCs using RNeasy mini kits (Qiagen, Courtaboeuf, France) and cDNAs were obtained using TaqMan reverse transcription reagents (Applied Biosystems, Les Ulis, France) as per the manufacturer's instructions. Messenger RNA expression was evaluated by quantitative PCR on a 7900HT real-time PCR system (Applied Biosystems) with predesigned Taqman gene expression assays and reagents, according to the manufacturer's instructions. Expression of the following genes was assessed in DCs or PBMCs: GILZ (Hs00608272_m1), IDO (Hs00158032_m1), RALDH-1 (Hs00167445_m1), RALDH-2 (Hs00180254_m1), ANXA1 (Hs00167549_m1), CLIC2 (Hs01574555_m)1, FKBP5 (Hs01561001_m1), F13A (Hs00173388_m1), GPX1 (Hs00829989_gH), IMDH2 (Hs00168418_m1), OSF1 (Hs00273458_m1), TPP1 (Hs00166099_m1), C1QA (Hs00381122_m1), C1QB (Hs00608019_m1), C1QC (Hs00757779_m1), CATB (Hs00947433_m1), CATC (Hs00175188_m1), STAB1 (Hs01109068_m1), MRC1 (Hs00267207_m1), CD71 (Hs00951083_m1), FSCN1 (Hs00979631_g1), IRF4 (Hs01056533_m1), MX1 (Hs00895608_m1), NMES1 (Hs00260902_m1), TRAF1 (Hs01090170_m1). Expression of the following genes was assessed in T cells: IFNg (Hs00989291_m1), IL-4 (Hs00174122_m1), IL-10 (Hs00961622_m1) and IL-17A (Hs00174383_m1). Data were interpreted for each target gene in comparison with endogenous β-actin (Hs99999903_m1) or GAPDH (Hs03929097_g1) as controls. The relative amount of target genes in each sample was calculated in comparison with the calibrator sample using the ΔΔCt The magnitude of gene induction was calculated using the formula 2^−ΔΔCt=2^(−ΔCt for stimulated cells−ΔCt for unstimulated cells).

monocyte-derived DCs [4] = assay: Cell surface phenotype of treated DCs by flow cytometry; format: cell-based, human; conditions: treatment during the differentiation step
Experimental: For immuno-fluorescence staining, cells were harvested, washed in PBS and incubated for 20 min at 4° C. with the following mAbs: FITC anti-CD14, FITC anti-CD80, PE anti-CD86, PC5 anti-CD83 (Beckman coulter), FITC anti-ILT2, PE anti-ILT4, PC5 anti-ILT3 (R&D systems) or PE-CD11c (Miltenyi Biotec, Paris, France). Cells were stained with corresponding isotype-matched control mAbs and analyzed by flow cytometry.

monocyte-derived DCs [5] = assay: Anti-inflammatory effect: treated DCs stimulated with LPS 24 h (costimulatory molecules, cytokine secretion); format: cell-based, human
[6] = moDCs treated 24 h, one value per peptide
[7] = tolerogenic DC models (model B)

C[C@@H]1C[C@H]2[C@@H]3CCC4=CC(=O)C=C[C@]4(C)[C@@]3(F)[C@@H](O)C[C@]2(C)[C@@]1(O)C(=O)CO [DEX, dexamethasone]
abundance of the m/z 865.70 molecular ion (monocyte-derived DCs [1]; moDCs treated 24 h): 16300 | Annexin A5 (ANXA5) average normalized abundance (monocyte-derived DCs [1]; [6]): 16940 and 11135 | Annexin A6 (ANXA6) average normalized abundance (monocyte-derived DCs [1]; [6]): 3594 and 2084 | Chloride intracellular channel protein 2 (CLIC2) average normalized abundance (monocyte-derived DCs [1]; [6]): 3857 and 4306 | Complement C1q subcomponent subunit C (C1QC) average normalized abundance (monocyte-derived DCs [1]; [6]): 4308 and 4812 and 2406 and 2725 | Cystatin-C (CYTC) average normalized abundance (monocyte-derived DCs [1]; [6]): 7747 and 6610 and 5925 | Dipeptidyl peptidase 1 (CATC) average normalized abundance (monocyte-derived DCs [1]; [6]): 9396 and 14732 and 15459 | Gelsolin precursor (GELS) average normalized abundance (monocyte-derived DCs [1]; [6]): 5372 and 6735 | Integrin alpha-M (ITAM) average normalized abundance (monocyte-derived DCs [1]; [6]): 3832 | Interferon-induced GTP-binding protein Mx1 (MX1) average normalized abundance (monocyte-derived DCs [1]; [6]): 1192 | Neuroblast differentiation-associated protein AHNAK (AHNK) average normalized abundance (monocyte-derived DCs [1]; [6]): 2629 and 3047 | Normal mucosa of esophagus-specific gene 1 protein (NMES1) average normalized abundance (monocyte-derived DCs [1]; [6]): 2947 and 2380 | Peptidyl-prolyl cis-trans isomerase A (PPIA) average normalized abundance (monocyte-derived DCs [1]; [6]): 18929 and 14751 | Peptidyl-prolyl cis-trans isomerase FKBP5 average normalized abundance (monocyte-derived DCs [1]; [6]): 3640 and 5224 and 4046 | Pleckstrin (PLEK) average normalized abundance (monocyte-derived DCs [1]; [6]): 5583 and 4404 | Proteasome subunit alpha type-7 (PSA7) average normalized abundance (monocyte-derived DCs [1]; [6]): 3617 and 2212 | Sequestosome-1 (SQSTM) average normalized abundance (monocyte-derived DCs [1]; [6]): 1340 and 2411 | TNF receptor-associated factor 1 (TRAF1) average normalized abundance (monocyte-derived DCs [1]; [6]): 1732 and 2223 | Transferrin receptor protein 1 (TFR1) average normalized abundance (monocyte-derived DCs [1]; [6]): 706 and 1195 | WD repeat-containing protein 1 (WDR1) average normalized abundance (monocyte-derived DCs [1]; [6]): 2581 and 2605 | C1QC specific peptides increase (monocyte-derived DCs [1]; tolerogenic DEX-DCs): ≤ 5 fold | ANXA1 protein level (monocyte-derived DCs [2]; DEX-DCs compared with Ctrl-DCs): 1.4 fold | FKBP5 protein induction (monocyte-derived DCs [2]; DEX-DCs compared with Ctrl-DCs): 2.6 fold | C1Q protein level (monocyte-derived DCs [2]; regulatory DEX-DCs): 12 fold | CATC protein level (monocyte-derived DCs [2]; regulatory DEX-DCs): 1.5 fold | MRC1 protein level (monocyte-derived DCs [2]; regulatory DEX-DCs): 1.4 fold | STAB1 protein level (monocyte-derived DCs [2]; regulatory DEX-DCs): 2.2 fold | C1QA, C1QB and STAB1 gene expression increase (monocyte-derived DCs [3]; DEX-DCs compared with Ctrl-DCs): ≤ 12 fold | FKBP5 and F13A gene expression increase (monocyte-derived DCs [3]; DEX-DCs relative to Ctrl-DCs): ≤ 15 fold

TGFb: cytokine TGFb added during the DC differentiation step (20 ng/ml)
CD14 expression (monocyte-derived DCs [4]): CD14^neg | ILT2 expression (monocyte-derived DCs [4]): ILT2^med | ANXA1, CATC and GILZ proteins (monocyte-derived DCs [2]; [7]): upregulated

C=C1/C(=C\C=C2/CCC[C@]3(C)[C@@H]([C@H](C)CCCC(C)(C)O)CC[C@@H]23)C[C@@H](O)C[C@@H]1O [VitD3, 1,25 dihydroxy-vitamin D3]
CD14 expression (monocyte-derived DCs [4]): CD14^med | ILT3 expression (monocyte-derived DCs [4]): ILT3^high | IL-6, IL-8 and TNF-α secretion after LPS stimulation (monocyte-derived DCs [5]): left uninhibited

B1: IL-10: cytokine IL-10 added during the DC differentiation step (10 ng/ml) (protein, UniProt P22301 19-178, looked up)
Interleukin-10: SPGQGTQSENSCTHFPGNLPNMLRDLRDAFSRVKTFFQMKDQLDNLLLKESLLEDFKGYLGCQALSEMIQFYLEEVMPQAENQDPDIKAHVNSLGENLKTLRLRLRRCHRFLPCENKSKAVEQVKNAFNKLQEKGIYKAMSEFDIFINYIEAYMTMKIRN
CD14 expression (monocyte-derived DCs [4]): CD14^high | ILT4 expression (monocyte-derived DCs [4]): ILT4high | F13A, MRC1 and STAB1 proteins (monocyte-derived DCs [2]; tolerogenic DC models (model B), DEX 24 h or differentiation): upregulated | CATC gene induction (monocyte-derived DCs [3]; [7]): detected
